Here are results for one molecule from patent US10016383B2, “Inhibitors of metallo-β-lactamase-enzymes” (McMaster University, priority 2013, dated 2018).

What all share (experiment): Clinical isolate screening with meropenem
Format in all cases: cell-based, Enterobacteriaceae, Acinetobacter spp. and Pseudomonas spp.

In one assay the test system is AIM-expressing isolates. As to conditions: meropenem 2 μg/ml, AM-A 8 μg/ml. How it is done: (§1) Various concentrations of AM-A were chosen in combination with 2 mg/L of meropenem which is the EUCAST breakpoint for resistance^28. Synergistic properties of the two compounds were examined in a micro-titre tray using BHI as the growth medium (Oxford Science Park, England) and an inoculum of 0.5 MacFarland. All plates contained the control strains Escherichia coli ATCC 25922 and Pseudomonas aeruginosa ATCC 27853. Overall, 226 non-clonal clinical isolates (Enterobacteriaceae, P. aeruginosa and Acinetobacter spp.) were challenged containing one of the following MBLs: SPM-1 (n=17), AIM-1 (n=8), NDM-1 (n=67), VIM-type (n=114) or IMP-type (n=20). […] Plates were incubated at 37° C. and read after 18 hrs.

In a further assay the test system is IMP-expressing isolates. As to conditions: meropenem 2 μg/ml, AM-A 8 μg/ml. How it is done: as §1
Another assay relates to NDM positives isolates. As to conditions: AM-A 8 μg/ml, meropenem 2 μg/ml. How it is done:
as §1

The next assay deals with VIM positive isolates. Conditions: AM-A 8 μg/ml, meropenem 2 μg/ml. How it is done: as §1

“Also recorded” adds a separate entry of the source.

Consider `N[C@H](CN[C@H](CN[C@@H](CC(=O)O)C(=O)O)C(=O)O)C(=O)O` [AM-A, aspergillomarasmine A], for which the “potentiation of meropenem / susceptibility to combination” value with AIM-expressing isolates and in the assay with IMP-expressing isolates was “very little potentiation; also recorded: remained resistant” each time. Further, the “isolates with meropenem sensitivity restored” value in the assay with NDM positives isolates worked out at 88%; with VIM positive isolates, 90%. Moreover, the “susceptibility to meropenem/AM-A combination” value in the assay with NDM positives isolates and in the assay on VIM positive isolates was “highly susceptible” in each case.
